From publication PMC4172587 (2014) come the findings set out here.

Experiment [1] has as its system poly(dA).poly(dT) (DNA, polymer) A/T. The experiment is described as follows: UV melting, 260 nm. The conditions noted are these: Na+ (citrate-phosphate 15 mM); 15 mM CP buffer pH 6.8; 20 µM polymer; harmalol at saturation (rmax); per base.
Experiment [2] concerns poly(dG).poly(dC) (DNA, polymer) G/C. The experiment is described as follows: absorbance titration, Scatchard, McGhee-von Hippel. The conditions noted are these: Na+ (citrate-phosphate 15 mM); 15 mM CP buffer pH 6.8, 25 °C; cooperative, intrinsic Ki 0.002±0.001 × 10^6, ω 84; DNA as nucleotide phosphate; per base.
Experiment [3] has as its system poly(dA).poly(dT) (DNA, polymer) A/T. The experiment can be described thus: fluorescence titration, Scatchard, McGhee-von Hippel. The conditions noted are these: Na+ (citrate-phosphate 15 mM); 15 mM CP buffer pH 6.8, 25 °C; cooperative, intrinsic constant, ω 20; DNA as nucleotide phosphate; per base.
Experiment [4] shares this test system. The experiment is described as follows: absorbance titration, Scatchard, McGhee-von Hippel. The conditions noted are these: Na+ (citrate-phosphate 15 mM); 15 mM CP buffer pH 6.8, 25 °C; cooperative, intrinsic Ki 0.02±0.01 × 10^6, ω 14.0; DNA as nucleotide phosphate; per base.
Experiment [5] deals with poly(dA-dT).poly(dA-dT) (DNA, polymer) AT. The experiment is described as follows: UV melting, 260 nm. The conditions noted are these: Na+ (citrate-phosphate 15 mM); 15 mM CP buffer pH 6.8; 20 µM polymer; harmalol at saturation (rmax); per base.
Experiment [6] deals with poly(dG-dC).poly(dG-dC) (DNA, polymer) GC. The experiment is described as follows: fluorescence titration, Scatchard, McGhee-von Hippel. The conditions noted are these: Na+ (citrate-phosphate 15 mM); 15 mM CP buffer pH 6.8, 25 °C; non cooperative; DNA as nucleotide phosphate; per base.
The test system of experiment [7] is poly(dG).poly(dC) (DNA, polymer) G/C. Described as above. The conditions noted are these: Na+ (citrate-phosphate 15 mM); 15 mM CP buffer pH 6.8, 25 °C; cooperative, intrinsic constant, ω 75; DNA as nucleotide phosphate; per base.
Experiment [8] has as its system poly(dA).poly(dT) (DNA, polymer) A/T. The experiment can be described thus: competition dialysis. Conditions: Na+ (citrate-phosphate 15 mM); apparent; 15 mM CP buffer pH 6.8, 25 °C; 150 µM nucleotide phosphate, 1 µM harmalol; per base.
Experiment [9] deals with poly(dA-dT).poly(dA-dT) (DNA, polymer) AT. The experiment can be described thus: fluorescence titration, Scatchard, McGhee-von Hippel. Conditions: Na+ (citrate-phosphate 15 mM); 15 mM CP buffer pH 6.8, 25 °C; non cooperative; DNA as nucleotide phosphate; per base.
Experiment [10] has the same test system. The experiment is described as follows: ITC, polynucleotide titrated into harmalol. Conditions: 15 mM Na+; CP buffer pH 6.8, 25 °C; single-site fit; text b28 prints 0.40±0.02×10^5, Table 3 agrees with 0.44×10^6; per base. A general note: ITC needs no label: the signal is the heat of the interaction.
Experiment [11] concerns poly(dG-dC).poly(dG-dC) (DNA, polymer) GC. The experiment is described as follows: absorbance titration, Scatchard, McGhee-von Hippel. The conditions noted are these: Na+ (citrate-phosphate 15 mM); 15 mM CP buffer pH 6.8, 25 °C; non cooperative; DNA as nucleotide phosphate; per base.
The test system of experiment [12] is poly(dA-dT).poly(dA-dT) (DNA, polymer) AT. The experiment is described as follows: competition dialysis. The conditions noted are these: Na+ (citrate-phosphate 15 mM); apparent; 15 mM CP buffer pH 6.8, 25 °C; 150 µM nucleotide phosphate, 1 µM harmalol; per base.
The subject of experiment [13] is poly(dG).poly(dC) (DNA, polymer) G/C. The experiment can be described thus: competition dialysis. The conditions noted are these: Na+ (citrate-phosphate 15 mM); apparent; 15 mM CP buffer pH 6.8, 25 °C; 150 µM nucleotide phosphate, 1 µM harmalol; per base.
The test system is the same in experiment [14]. The experiment is described as follows: ITC, polynucleotide titrated into harmalol. The conditions noted are these: 15 mM Na+; CP buffer pH 6.8, 25 °C; single-site fit; 20 µM harmalol; per base.
Experiment [15] relates to poly(dG-dC).poly(dG-dC) (DNA, polymer) GC. The experiment is described as follows: competition dialysis. The conditions noted are these: Na+ (citrate-phosphate 15 mM); apparent; 15 mM CP buffer pH 6.8, 25 °C; 150 µM nucleotide phosphate, 1 µM harmalol; per base.
The subject of experiment [16] is poly(dG).poly(dC) (DNA, polymer) G/C. The experiment is described as follows: UV melting, 260 nm. Conditions: Na+ (citrate-phosphate 15 mM); 15 mM CP buffer pH 6.8; 20 µM polymer; harmalol at saturation (rmax); per base.
Experiment [17] deals with poly(dA-dT).poly(dA-dT) (DNA, polymer) AT. The experiment can be described thus: absorbance titration, Scatchard, McGhee-von Hippel. Conditions: Na+ (citrate-phosphate 15 mM); 15 mM CP buffer pH 6.8, 25 °C; non cooperative; DNA as nucleotide phosphate; per base.
Experiment [18] deals with poly(dG-dC).poly(dG-dC) (DNA, polymer) GC. The experiment can be described thus: ITC, polynucleotide titrated into harmalol. The conditions noted are these: 15 mM Na+; CP buffer pH 6.8, 25 °C; single-site fit; 20 µM harmalol; per base.
In experiment [19] the test system is poly(dA).poly(dT) (DNA, polymer) A/T. The experiment is described as follows: ITC, polynucleotide titrated into harmalol. Conditions: 15 mM Na+; CP buffer pH 6.8, 25 °C; single-site fit; 20 µM harmalol; per base.

The term ΔTm denotes the change in melting temperature against a reference sample. On to `CC1=NCCc2c1[nH]c1cc(O)ccc21`, for which the ΔTm is 6 °C in experiment [1], 8 °C in experiment [5] and 6 °C in experiment [16]. Further, the values for the Kiω in experiment [2] and in experiment [4] were 0.18±0.01 × 10^6 M^-1 and 0.28±0.01 × 10^6 M^-1, respectively. Besides, the Kf in [3] was 0.015±0.001 × 10^6 M^-1; in experiment [6], 4.60±0.07 × 10^6 M^-1; in experiment [7] it was 0.002±0.001 × 10^6 M^-1; in [9], 0.45±0.04 × 10^6 M^-1. Further, the Kapp is on record as 3.39±0.02 × 10^5 M^-1 in experiment [8], 4.56±0.04 × 10^5 M^-1 in experiment [12], 2.19±0.01 × 10^5 M^-1 in experiment [13] and 13.10±0.07 × 10^5 M^-1 in experiment [15]. For the same molecule, the Kb is 0.44±0.02 × 10^6 M^-1 in [10], 0.22±0.03 × 10^6 M^-1 in experiment [14], 3.86±0.07 × 10^6 M^-1 in experiment [18] and 0.30±0.02 × 10^6 M^-1 in experiment [19]. Besides, the Ki is 4.20±0.05 × 10^6 M^-1 in experiment [11] and 0.43±0.03 × 10^6 M^-1 in [17].
